Measured values reported in patent US20260345641A1, “COMPOSITIONS AND USES THEREOF” (Algorae Pharmaceuticals Ltd, priority 2023, published 2026).

How the values were obtained:
[1] = system: SH-S5Y5 neuroblastoma cells; test: Cell viability (MTT) in response to Aβ, in vitro model of Alzheimer's disease; assay type: cell-based; conditions: 20 μM Aβ, 24 h
Excerpt: (§1) The SH-S5Y5 neuroblastoma cell line was used for pre-clinical analysis. The SH-S5Y5 cell line is commonly used as a model for neurodegenerative disorders as the cells can be converted to various types of functional neurons by the addition of specific compounds (see, e.g., Xicoy et al., 2017, Molecular Neurodegeneration, 12: 10). In addition, the SH-S5Y5 cell line has been used widely in experimental neurological studies, including analysis of neuronal differentiation, metabolism, and function related to neurodegenerative processes, neurotoxicity and neuroprotection (see, e.g., Datki et al., 2003, Brain Research Bulletin, 62(3): 22-229; and Xie et al., 2010, Chinese Medical Journal, 123(8): 1086-1092).
100 μL MTT reagent was added to each well (final concentration 0.5 mg/mL). Cells were then incubated at 37 °C, 5% CO2 for 4 hours. Solubilization buffer (100 μL) was then added to each well and further incubated at 37 °C, 5% CO2 for 24 hours. Absorbance was then measured by spectrophotometer at 550-600 nm and background corrected at 650 nm.
Amyloid-β (Aβ; 1 mg) was dissolved in 2 mL of 1,1,1,3,3,3-hexafluoro-2-propanol (HFIP). An additional 200 μL of HFIP was then added due to volatility. The Aβ was sealed with parafilm and vortexed for 30 seconds before aliquoting at 100 μL per 1.5 mL tube. HFIP was then evaporated in fume hood for 8 hours. Tubes were then sealed with lid and parafilm and stored at −80 °C. Prior to use, Aβ was reconstituted in DMSO to a final volume of 10% v/v for 10-15 min at RT and vortexed every 3-5 min. F-12 medium was then added to a final volume of 90% v/v. Aβ was then stored at 4 °C for 24 hours and vortexed before use.
Cells were seeded in 96-well microplates and incubated 37 °C, 5% CO2 for 24 hours.

SH-SY5Y cells = test: Gene expression analysis by RNA sequencing in the presence of Aβ; assay type: cell-based, human
Excerpt: as §1
Total RNA was isolated from cells using TRIzol in accordance with the manufacturer's instructions (Invitrogen, Carlsbad, CA, USA). RNA concentration and quality was assessed using a NanoDrop spectrophotometer. Only samples with a 260/280 ratio of ≥1.8 were used for further analysis.
Messenger RNA (mRNA) was purified from total RNA using poly-T oligo attached magnetic beads. After fragmentation, cDNA synthesis was performed in accordance with the manufacturer's instructions (Illumina, San Diego, CA, USA) to generate a directional and non-directional library. Libraries were checked with Qubit, real-time PCR was performed for quantification, and size distribution detection was performed using the Bioanalyzer. Quantified libraries were pooled and sequenced on an Illumina platform, according to the manufacturer's instructions.
Raw reads were filtered and mapped to human reference genome (GRCh38/hg38) using HISAT2. Differential gene expression analysis was performed using R Package DEG seq2. […] Manual annotation of genes previously associated with specific neurodegenerative disorders and dementias was performed following a text mining analysis.

[2] = oral administration; cited from earlier work

Compound | Cell viability as measured by MTT ([1]; CBD 2.5 μM) | Cell viability as measured by MTT ([1]; CBD 5 μM) | Cell viability as measured by MTT ([1]; CBD 10 μM) | MFSD8 expression (SH-SY5Y cells) | MBP expression (SH-SY5Y cells; 5 μM CBD, Aβ, control 0.089, P 0.012) | GBE1 expression (SH-SY5Y cells; 5 μM CBD, Aβ, control 1.194, P 0.037) | ERCC4 expression (SH-SY5Y cells; 5 μM CBD, Aβ, control 1.970, P 0.037) | MT-TW expression (SH-SY5Y cells; 5 μM CBD, Aβ, control 2.846, P 0.023) | TRAPPC2 expression (SH-SY5Y cells; 5 μM CBD, Aβ, control 3.872, P 0.013) | SLC20A2 expression (SH-SY5Y cells; 5 μM CBD, Aβ, control 7.014, P 0.046) | IRF6 expression (SH-SY5Y cells; 5 μM CBD, Aβ, control 7.365, P 0.012) | LAMP1 expression (SH-SY5Y cells; 5 μM CBD, Aβ, control 34.350, P 0.018) | TAF15 expression (SH-SY5Y cells; 5 μM CBD, Aβ, first TAF15 line, control 14.968, P 0.046) | TAF15 expression (SH-SY5Y cells; 5 μM CBD, Aβ, second TAF15 line, control 15.869, P 0.046) | bioavailability [2]
C=C(C)[C@@H]1CCC(C)=C[C@H]1c1c(O)cc(CCCCC)cc1O [CBD, Cannabidiol] | 0.011 | 0.031 | 0.116 | 2.603 FPKM | 0.046 FPKM | 1.305 FPKM | 2.197 FPKM | 4.309 FPKM | 4.267 FPKM | 7.447 FPKM | 7.774 FPKM | 31.452 FPKM | 17.887 FPKM | 17.095 FPKM | –
COc1ccc2c3c1O[C@H]1C[C@@H](O)C=C[C@@]31CCN(C)C2 [Galantamine] | – | – | – | – | – | – | – | – | – | – | – | – | – | – | high bioavailability
CCN(C)C(=O)Oc1cccc([C@H](C)N(C)C)c1 [Rivastigmine] | – | – | – | – | – | – | – | – | – | – | – | – | – | – | high bioavailability
